Measured values from patent US20030125322A1, “Crystalline form I of 2-methyl-4-(4-methyl-1-piperazinyl) 10H thieno [2,3-b][1,5]benzodiazepine” (SUN PARMACEUTICAL INDUSTRIES LIMITED, priority 2001, published 2003).
“Also recorded” adds a separate entry of the source.

Columns and labels:
[1] = Storage stability of the crystalline form (colour, infrared spectrum, x-ray diffractogram); assay type: physicochemical; conditions: for change in colour, Infrared spectrum and X-ray diffractogram on storage: accelerated conditions
Source text: The crystalline Form I of 2-methyl-4-(4-methyl-1-piperazinyl)-10H-thieno[2,3-b][1,5]benzodiazepine of the present invention has a typical x-ray powder diffraction pattern as represented by d (interplanar spacing) values 9.9446, 8.5272, 8.1949, 6.8637, 6.3510, 5.4653, 4.8278, 4.7121, 4.5295, 4.2239, 4.0788, 3.8230, 3.7525, 3.6909, 3.4995, 3.3393, 3.1051, 2.9451, 2.8182, 2.7589, 2.5925, 2.3369, 2.0251, 1.9183; infrared absorbance bands at approximately 1456, 1365, 905, 757, 662 & 604 cm^−1 and a stable colour.

[2] = cited from earlier work; for colour stability on standing / storage: prior-art material as reported ('382 process Form I; '541 Form II)

Row | SMILES | change in colour, Infrared spectrum and X-ray diffractogram on storage ([1]; 40° C. and 75% relative humidity for one month) | change in colour, Infrared spectrum and X-ray diffractogram on storage ([1]; 40° C. and 75% relative humidity for one month, listed as Example 2) | change in colour, Infrared spectrum and X-ray diffractogram on storage ([1]; 75-80° C. for 25 days) | change in colour, Infrared spectrum and X-ray diffractogram on storage ([1]; 75-80° C. for 25 days, listed as Example 2) | change in colour, infrared spectrum and x-ray diffractogram on storage ([1]; ambient conditions of storage, about 15° C. to 35° C. and about 40% to 90% RH) | change in colour, Infrared spectrum (KBr) and X-ray diffractogram on storage ([1]; ambient conditions of storage, room temperature for one month) | stability of crystal form ([2]; Form I obtained by the '382 process, as reported) | colour stability on standing / storage [2]
1 | Cc1cc2c(s1)Nc1ccccc1N=C2N1CCN(C)CC1 [Form I, 2-methyl-4-(4-methyl-1-piperazinyl)-10H-thieno[2,3-b][1,5]benzodiazepine] | no changes in colour, infra-red spectrum and x-ray diffractogram | No change in colour, Infrared spectrum (KBr) and X-ray diffractogram | no changes in colour, infra-red spectrum and x-ray diffractogram | No change in colour, Infrared spectrum (KBr) and X-ray diffractogram | no change in colour, infrared spectrum and x-ray diffractogram | No change in colour, Infrared spectrum (KBr) and X-ray diffractogram | metastable | colour changes upon storage and exposure to air; also recorded: change its colour on standing
2 | Cc1cc2c(s1)Nc1ccccc1N=C2N1CCN(C)CC1 [Form II, olanzapine, reference compound] |  |  |  |  |  |  |  | satisfactory colour stability
